From ChEMBL document CHEMBL1201862, “PubChem BioAssay data set” (2004)
The source made the active and inactive calls.

Columns and labels:
[1] = biological target: T1, Calpain-2 catalytic subunit (Sus scrofa, UniProt P43367); experiment: m-calpain protease blockers, concentration series – biochemical, fluorogenic peptide substrate, dose response (AID 1420); assay type: functional
T1 sequence (P43367 whole entry): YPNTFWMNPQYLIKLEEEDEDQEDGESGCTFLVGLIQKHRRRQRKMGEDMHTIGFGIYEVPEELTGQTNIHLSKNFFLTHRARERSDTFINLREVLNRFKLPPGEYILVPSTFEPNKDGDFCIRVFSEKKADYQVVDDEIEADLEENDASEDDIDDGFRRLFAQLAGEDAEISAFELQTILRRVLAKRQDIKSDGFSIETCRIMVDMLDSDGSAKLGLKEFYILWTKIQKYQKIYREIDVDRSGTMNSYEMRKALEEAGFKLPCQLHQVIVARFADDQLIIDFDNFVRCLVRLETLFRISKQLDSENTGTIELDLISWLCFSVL

BJ [2] = experiment: BJ-TERT fibroblast viability loss – cell-based, RAS-independent, luminescence, dose response (AID 1933); assay type: functional; conditions: Homo sapiens
[3] = DRD fibroblast viability loss – cell-based, non-viral oncogenic, luminescence, dose response (AID 1934); assay type: functional; conditions: Homo sapiens
BJ [4] = experiment: cells; assay type: functional, cell-based; conditions: Homo sapiens
BJ [5] = experiment: BJ-TERT-LT-ST fibroblast viability loss – cell-based, RAS-independent, luminescence, dose response (AID 1935); assay type: functional; conditions: Homo sapiens;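 note: BJ fibroblasts immortalized with TERT plus LT and ST oncogenes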
[6] = biological target: FAD-linked sulfhydryl oxidase ALR (Homo sapiens, UniProt P55789); experiment: ALR-catalysed DTT oxidation blockers – biochemical, H2O2 detection, luminescence, cherry-pick, dose response (AID 493248)
FAD-linked sulfhydryl oxidase ALR, sequence (P55789 whole entry): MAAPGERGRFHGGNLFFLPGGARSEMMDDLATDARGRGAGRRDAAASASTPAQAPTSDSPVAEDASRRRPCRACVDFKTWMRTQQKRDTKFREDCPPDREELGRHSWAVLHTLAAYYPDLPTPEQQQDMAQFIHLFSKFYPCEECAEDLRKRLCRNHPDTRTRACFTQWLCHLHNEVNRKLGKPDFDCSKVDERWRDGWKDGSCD

[7] = viability of uninfected HEp-2 cells – cell-based, HTS, cytotoxicity control for RSV inhibitor project, dose response (AID 2410); assay type: functional; conditions: human respiratory syncytial virus
[8] = biological target: T2, Rac GTPase-activating protein 1 (Homo sapiens, UniProt Q9H0H5); experiment: blockers of MgcRacGAP-driven Rac1 GTP hydrolysis – biochemical, ADP Hunter fluorescence, primary and confirmatory, confirmation (AID 624330); assay type: functional
T2 sequence (Q9H0H5 whole entry): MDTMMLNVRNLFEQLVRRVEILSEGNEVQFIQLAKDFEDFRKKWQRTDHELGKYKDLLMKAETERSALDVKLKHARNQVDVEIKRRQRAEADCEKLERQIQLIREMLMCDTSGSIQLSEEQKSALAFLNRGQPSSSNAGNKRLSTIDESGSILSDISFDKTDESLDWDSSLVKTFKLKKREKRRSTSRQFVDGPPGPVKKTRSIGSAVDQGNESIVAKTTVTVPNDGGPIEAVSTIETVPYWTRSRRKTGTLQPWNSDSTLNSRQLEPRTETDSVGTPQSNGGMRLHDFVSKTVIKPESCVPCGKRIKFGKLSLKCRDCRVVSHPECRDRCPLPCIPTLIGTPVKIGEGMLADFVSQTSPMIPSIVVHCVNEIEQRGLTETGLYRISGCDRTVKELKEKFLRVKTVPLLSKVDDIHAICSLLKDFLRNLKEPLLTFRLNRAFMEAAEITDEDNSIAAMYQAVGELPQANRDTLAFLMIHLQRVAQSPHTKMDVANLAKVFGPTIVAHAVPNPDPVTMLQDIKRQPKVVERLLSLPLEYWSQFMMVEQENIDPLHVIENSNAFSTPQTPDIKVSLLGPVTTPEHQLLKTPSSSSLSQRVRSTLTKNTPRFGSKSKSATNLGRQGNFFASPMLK

H4 = experiment: Luminescence Cell-Based Dose Response HTS to Identify Activators of 5'UTR Stem-Loop Driven Prion Protein mRNA Translation in H4 Neuroglioblastoma Cells. [Related pubchem assays: 1829 (Project Summary), 1814 (Primary HTS)]; assay type: functional; conditions: Homo sapiens
[9] = Luminescence Cell-Based Dose Response HTS to Identify Activators of Luciferase Translation or Activity in H4 […] Cells. [Related pubchem assays: 1829 (Project Summary), 1814 (Primary HTS)]; assay type: functional
[10] = reduction of Shn3 3'UTR-driven luciferase in osteoblasts – cell-based, Clone20 osteoblasts, firefly luciferase, cherry-picked, dose response (AID 624132); assay type: functional;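 note: firefly luciferase luminescence from reporter carrying the Shn3 3'UTR in osteoblasts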
[11] = loss of viability in HepG2 cells – cell-based, CellTiter-Glo, cherry-picked, cytotoxicity control for Shn3 inhibitor project, dose response (AID 624134); assay type: functional
[12] = non-specific 3'UTR reporter inhibition in Clone20-Shn3RL – cell-based, Renilla luciferase, cherry-picked, counter-screen for Shn3 inhibitor project, dose response (AID 624133); assay type: functional
Fatty acid synthase [13] = biological target: T3, Fatty acid synthase (Homo sapiens, UniProt P49327); experiment: inhibition of human FAS-TE enzyme activity – biochemical, kinetic fluorescence intensity, dose response (AID 624326); assay type: functional;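 note: rate of fluorescence rise from hydrolysis of a fluorogenic O-methyl fluorescein ester substrate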
T3 sequence (P49327 whole entry): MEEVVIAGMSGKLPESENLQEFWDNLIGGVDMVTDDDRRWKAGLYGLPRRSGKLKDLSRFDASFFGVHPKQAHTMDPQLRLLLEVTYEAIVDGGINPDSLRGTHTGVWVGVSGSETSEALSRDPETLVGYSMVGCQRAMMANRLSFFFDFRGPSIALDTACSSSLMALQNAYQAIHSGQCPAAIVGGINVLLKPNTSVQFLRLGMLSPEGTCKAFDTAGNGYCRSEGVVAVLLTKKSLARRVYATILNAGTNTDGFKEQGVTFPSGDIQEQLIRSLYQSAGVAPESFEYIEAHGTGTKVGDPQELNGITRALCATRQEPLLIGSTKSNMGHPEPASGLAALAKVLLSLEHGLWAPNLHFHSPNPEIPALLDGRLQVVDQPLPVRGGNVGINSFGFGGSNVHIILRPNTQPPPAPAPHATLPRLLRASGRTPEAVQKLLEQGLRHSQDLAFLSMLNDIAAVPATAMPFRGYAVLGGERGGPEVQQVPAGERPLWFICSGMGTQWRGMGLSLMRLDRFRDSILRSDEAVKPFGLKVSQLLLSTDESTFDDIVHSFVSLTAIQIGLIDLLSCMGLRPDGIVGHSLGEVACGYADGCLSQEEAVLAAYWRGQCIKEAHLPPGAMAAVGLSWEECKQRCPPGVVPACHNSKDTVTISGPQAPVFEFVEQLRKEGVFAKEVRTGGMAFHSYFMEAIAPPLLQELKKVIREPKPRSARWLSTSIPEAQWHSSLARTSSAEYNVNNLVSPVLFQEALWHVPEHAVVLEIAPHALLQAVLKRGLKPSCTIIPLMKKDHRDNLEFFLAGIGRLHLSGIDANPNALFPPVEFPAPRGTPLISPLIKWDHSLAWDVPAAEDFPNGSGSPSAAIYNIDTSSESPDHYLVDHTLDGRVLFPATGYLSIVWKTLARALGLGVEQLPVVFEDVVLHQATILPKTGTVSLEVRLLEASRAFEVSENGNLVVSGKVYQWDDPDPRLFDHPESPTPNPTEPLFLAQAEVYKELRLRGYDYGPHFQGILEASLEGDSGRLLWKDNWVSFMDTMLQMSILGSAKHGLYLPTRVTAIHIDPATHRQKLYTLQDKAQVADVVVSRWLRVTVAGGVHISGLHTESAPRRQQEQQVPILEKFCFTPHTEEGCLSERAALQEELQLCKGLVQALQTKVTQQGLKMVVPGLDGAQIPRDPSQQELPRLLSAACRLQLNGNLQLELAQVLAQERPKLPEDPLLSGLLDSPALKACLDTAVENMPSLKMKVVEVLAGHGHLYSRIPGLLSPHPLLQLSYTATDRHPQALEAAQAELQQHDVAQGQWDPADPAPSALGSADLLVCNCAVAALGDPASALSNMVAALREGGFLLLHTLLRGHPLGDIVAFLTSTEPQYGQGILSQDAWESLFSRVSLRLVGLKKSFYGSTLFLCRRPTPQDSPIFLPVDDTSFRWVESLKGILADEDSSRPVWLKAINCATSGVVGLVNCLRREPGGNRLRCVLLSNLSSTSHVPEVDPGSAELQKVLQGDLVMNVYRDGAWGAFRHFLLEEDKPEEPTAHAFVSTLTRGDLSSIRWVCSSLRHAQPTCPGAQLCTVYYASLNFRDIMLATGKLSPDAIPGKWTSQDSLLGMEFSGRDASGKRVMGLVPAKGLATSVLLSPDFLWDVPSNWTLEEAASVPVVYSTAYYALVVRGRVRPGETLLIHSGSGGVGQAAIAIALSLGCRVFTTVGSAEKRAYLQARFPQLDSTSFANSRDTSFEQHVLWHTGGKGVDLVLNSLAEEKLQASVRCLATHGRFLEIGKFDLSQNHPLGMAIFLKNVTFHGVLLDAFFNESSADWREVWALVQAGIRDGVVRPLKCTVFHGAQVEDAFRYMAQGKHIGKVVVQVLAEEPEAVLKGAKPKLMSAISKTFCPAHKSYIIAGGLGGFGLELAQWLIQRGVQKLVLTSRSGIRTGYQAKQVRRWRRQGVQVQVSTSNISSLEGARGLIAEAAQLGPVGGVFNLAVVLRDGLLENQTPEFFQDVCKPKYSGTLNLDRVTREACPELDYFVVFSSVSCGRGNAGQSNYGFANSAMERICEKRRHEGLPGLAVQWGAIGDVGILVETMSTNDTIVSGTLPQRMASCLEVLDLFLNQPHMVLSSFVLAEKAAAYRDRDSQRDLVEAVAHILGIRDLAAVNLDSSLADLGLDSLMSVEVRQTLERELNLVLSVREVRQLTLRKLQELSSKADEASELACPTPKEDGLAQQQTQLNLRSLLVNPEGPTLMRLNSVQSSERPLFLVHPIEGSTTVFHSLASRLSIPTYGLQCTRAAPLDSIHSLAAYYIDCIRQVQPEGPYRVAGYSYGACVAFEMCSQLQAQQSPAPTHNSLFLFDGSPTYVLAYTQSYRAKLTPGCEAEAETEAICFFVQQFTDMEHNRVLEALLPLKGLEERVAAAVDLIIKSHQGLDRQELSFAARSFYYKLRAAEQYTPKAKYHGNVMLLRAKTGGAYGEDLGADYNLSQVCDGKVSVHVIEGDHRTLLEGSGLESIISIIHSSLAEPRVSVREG

Fatty acid synthase [14] = biological target: T3, Fatty acid synthase; experiment: inhibition of human FAS-TE enzyme activity – biochemical, endpoint fluorescence intensity, uHTS hits, dose response (AID 624327); assay type: functional;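 note: fluorescence from hydrolysis of an O-methyl fluorescein acyl ester substrate by the enzyme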
Paired box protein Pax-8 = Paired box protein Pax-8 (Homo sapiens, UniProt Q06710); experiment: PAX8 transcriptional activity inhibition in RMG-I – RMG-I cells, luciferase, cherry-pick, dose response (AID 687027); assay type: functional, cell-based;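 note: luciferase reporter driven by Pax8 target thyroperoxidase promoter measured by SteadyGlo luminescence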
Paired box protein Pax-8, sequence (Q06710 whole entry): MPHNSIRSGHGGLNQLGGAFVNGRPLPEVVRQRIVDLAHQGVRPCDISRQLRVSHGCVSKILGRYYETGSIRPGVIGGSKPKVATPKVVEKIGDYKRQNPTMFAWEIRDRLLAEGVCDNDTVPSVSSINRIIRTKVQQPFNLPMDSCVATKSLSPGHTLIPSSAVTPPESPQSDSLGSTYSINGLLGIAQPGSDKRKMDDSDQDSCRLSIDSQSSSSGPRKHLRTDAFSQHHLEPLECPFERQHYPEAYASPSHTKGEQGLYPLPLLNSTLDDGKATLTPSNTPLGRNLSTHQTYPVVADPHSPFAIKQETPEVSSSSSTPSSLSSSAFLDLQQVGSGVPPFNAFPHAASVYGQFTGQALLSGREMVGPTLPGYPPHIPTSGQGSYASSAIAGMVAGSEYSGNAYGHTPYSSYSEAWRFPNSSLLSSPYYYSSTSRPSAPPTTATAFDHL

Vero = experiment: cells; assay type: functional; conditions: Chlorocebus sabaeus
[15] = blockers of HIV-1 envelope-mediated cell-cell fusion – cherry-pick, dose response (AID 652057); assay type: functional, cell-based
INS1 = experiment: INS-1E survival protection against cytokine death – cell-based, luminescence, retest, dose response (AID 449756); assay type: functional; conditions: Rattus norvegicus;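 note: cell death triggered by IL-1 beta plus TNF-alpha plus IFN-gamma mixture; protective hits raise ATP signal compared with cytokine alone wells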
[16] = P. falciparum Dd2 growth inhibitors, dose response, SYBR Green, cherry-picked samples (AID 1159567); assay type: functional, cell-based

Compound: CCN(CC)c1ccc(C(=O)NNC(=O)CCl)cc1
- IC50 [1]: 9.84 µM (active)

Compound: CCCn1c(SCC(=O)Nc2ccccc2OC)nnc1-c1ccco1
- EC50 (BJ [2]): 29.2 µM (active)
- EC50 [3]: 21.1 µM (active)
- EC50 (BJ [4]): 50.9 µM (active)
- EC50 (BJ [5]): > 150 µM (inconclusive)

Compound: CC(C)N(C(=O)COC(=O)c1ccc(O)cc1)C(C)C
- IC50 [1]: 18.7 µM (not active)

Compound: Cc1ccc(NC2CCCN(C(=O)c3snnc3C)C2)cc1C (stereo unspecified)
- AC50 [6]: 1.64 µM (active)

Compound: Cc1ccc(N(CCCCN2C(=O)c3ccccc3C2=O)C(=O)c2ccc(Cl)s2)cc1
- CC50 [7]: 24.1 µM (active)
- IC50 [1]: 2.83 µM (not active)

Compound: CC(C)(C)N1C(=O)c2ccc(C(=O)Nc3ccc(O)cc3)cc2C1=O
- IC50 [8]: 26.8 µM (active)
- AC50 [6]: 3.13 µM (active)

Compound: CCC1=Nc2cc(C(=O)NCCN3CCOCC3)ccc2Sc2ccc(Br)cc21
- EC50 (BJ [2]): > 150 µM (not active)
- EC50 [3]: > 150 µM (not active)
- EC50 (BJ [4]): > 150 µM (not active)
- EC50 (BJ [5]): > 150 µM (not active)

Compound: Cc1ccc(NC2CCCN(C(=O)C3CCCC3)C2)cc1C (stereo unspecified)
- AC50 [6]: 4.78 µM (active)

Compound: CCOC(=O)c1[nH]c(C)c(C(=O)N2CCN(c3cccc(Cl)c3)CC2)c1C
- CC50 [7]: 20.9 µM (active)

Compound: Nc1ccccc1Sc1ccc(C(F)(F)F)cc1[N+](=O)[O-]
- IC50 [1]: 2.55 µM (active)

Compound: O=C1CC(c2ccccc2)Sc2nc3ccccc3n21 (stereo unspecified)
- EC50 (H4): 15.4 µM (active)
- EC50 [9]: 15.4 µM (active)

Compound: CC(=O)c1ccc(NC(=O)C(C)OC(=O)/C=C/c2ccco2)cc1 (stereo unspecified)
- AC50 [10]: 9.12 µM (active)
- AC50 [11]: > 70 µM (inactive)
- AC50 [12]: 15.3 µM (active)

Compound: C=C1CC(COc2ccc3c(C)c(Cl)c(=O)oc3c2)(c2ccccc2)OC1=O (stereo unspecified)
- IC50 (Fatty acid synthase [13]): 12 µM (active)
- AC50 [10]: 4.82 µM (active)
- AC50 [11]: 13.2 µM (active)
- IC50 (Fatty acid synthase [14]): 10.5 µM (active)
- AC50 [12]: 9.25 µM (active)
- AC50 (Paired box protein Pax-8): 5.9 µM (active)

Compound: CCOC(=O)/C(=C/c1ccc(OC(F)F)cc1)C1=Nn2c(nnc2-c2ccc(Cl)cc2)SC1
- CC50 (Vero): 7.48 µM (active)

Compound: O=C(CN1C(=O)c2ccc([N+](=O)[O-])cc2C1=O)NCCC1=CCCCC1
- IC50 (Fatty acid synthase [13]): 15.4 µM (active)
- IC50 (Fatty acid synthase [14]): 20.9 µM (inactive)

Compound: Nc1nc(N)c2cc(CNc3ccc(Cl)c(Cl)c3)ccc2n1
- AC50 [10]: 0.956 µM (active)
- AC50 [11]: 1.21 µM (active)
- AC50 [12]: 3.34 µM (active)

Compound: C/N=C1/c2cc3cc(OC)ccc3n2CCN1Cc1ccccc1
- AC50 [11]: 45.4 µM (active)

Compound: COC(=O)c1cc(C(=O)OCC(=O)NC2CCCCCCC2)cc([N+](=O)[O-])c1
- IC50 (Fatty acid synthase [13]): 8 µM (active)
- IC50 (Fatty acid synthase [14]): 7.09 µM (active)

Compound: C[C@H]1CN([C@@H](C)CO)S(=O)(=O)c2ccc(-c3cccc(F)c3)cc2O[C@H]1CN(C)S(=O)(=O)c1ccccc1
- AC50 [15]: 25.7 µM (active)

Compound: O=C(C[C@@H]1C[C@H]2c3cc(NC(=O)Nc4ccc(C(F)(F)F)cc4)ccc3O[C@H]2[C@H](CO)O1)NCCc1ccccc1
- AC50 (Paired box protein Pax-8): 15.9 µM (active)

Compound: Cc1ccc(-c2[nH]ncc2/C=N/n2c(COc3ccccc3C)nc3ccccc3c2=O)cc1
- AC50 (INS1): 6.28 µM (active)
- IC50 [1]: 28 µM (not active)

Compound: O=[N+]([O-])c1cccc(/C=N\N=C2c3ccccc3-c3ccccc32)c1O
- IC50 [1]: < 0.4 µM (not active)

Compound: O=C(c1ccccn1)N1CC[C@H]2[C@H](CO)Nc3ccc(-c4ccccc4)cc3[C@H]21
- AC50 [16]: 12.4 µM (active)

Compound: C[C@H]1CN([C@@H](C)CO)C(=O)c2ccccc2-c2ccccc2CO[C@H]1CN(C)Cc1cccc(C(F)(F)F)c1
- AC50 [16]: 4.48 µM (active)

Compound: COc1ccc2c3c(n(C)c2c1)[C@@H](CO)N(CC1CCCCC1)CC31CCN(C(=O)CN(C)C)CC1
- AC50 [16]: 5.49 µM (active)
